Assay results published in patent US11191742B2, “Methods of treating neurodegenerative disorders in a particular population” (ALZHEON, INC., priority 2015, dated 2021).

Experiments:
Type in all cases: in vivo, human
[1] = test system: APOE4 heterozygous patients with Alzheimer's disease; assay: Phase 3 trials of tramiprosate, CDR-SB score, heterozygous APOE4+ patients; conditions: Heterozygous APOE4+ patients ≤85 years
Description: (§1) The delta value in all of these tables is calculated by measuring the increase in score over baseline for each patient in a treatment group and obtaining the mean increase for such group and then subtracting that value from the mean increase in score over baseline for all patients in the placebo group. Thus, a positive delta value in these tables represents an improvement over the placebo group. Phase 3 human clinical trials of tramiprosate to treat Alzheimer's disease at doses of 100 mg BID and 150 mg BID for up to 78 weeks were run in both North America and Europe (1691 total patients enrolled). Placebos in both trials were treatment with donepezil either alone or in combination with memantine. ADAS-Cog scores and CDR-SB scores were obtained every 13 weeks for patients that remained in the trial. The patients were genotyped for APOE4 and the severity of their disease was measured using MMSE prior to the beginning of treatment. The data from both trials were merged for certain statistical analyses. […] We then performed additional subgroup analysis, subgrouping by APOE4 genotype/allele status (APOE4 heterozygous or APOE4 homozygous) and by disease severity (mild vs moderate) to determine if the number of c alleles and/or the severity of disease predicted a better outcome of tramiprosate therapy. […] In Table 4, *control treatment is donepezil either alone or in combination with memantine. Positive delta values quantitate the amount by which average increase in CDR-SB Score points above baseline for the control group exceeded the average increase in CDR-SB Score points above baseline for the treatment group.

[2] = test system: APOE4+ patients with Alzheimer's disease; assay: Phase 3 trials of tramiprosate, CDR-SB score, all APOE4+ patients; conditions: for CDR-SB Score Change over Standard of Care (Δ improvement vs control): All APOE4+ patients ≤85 years
Description: as §1, with “2,” for “4,”

[3] = Safety in Phase 3 tramiprosate studies
Description: In some embodiments, the subject is determined to have moderate AD when the subject has a baseline MMSE score in the range of 16-19. In some embodiments, the subject is determined to have mild AD when the subject has a baseline MMSE score in the range of 20-26. […] Safety data from Phase 3 tramiprosate studies support bridging to the ALZ-801 safety database, based on bioequivalence. The disclosures in provisional application Ser. No. 62/216,404, filed Sep. 10, 2015, 62/290,287, filed Feb. 2, 2016, and 62/365,809, filed Jul. 22, 2016 are incorporated herein for all purposes and particularly regarding dosages and formulations.

[4] = test system: APOE4/4 homozygous patients with Alzheimer's disease; assay: Phase 3 trials of tramiprosate, ADAS-Cog and CDR-SB by baseline MMSE, APOE4/4 homozygous subjects; conditions: 150 mg BID
Description: Analysis of the efficacy or tramiprosate in APOE4/4 homozygous subjects based on baseline MMSE was performed to evaluate for differences in drug response between Mild and Moderate patients. […] analyses were performed on the following baseline MMSE categories: Mild-to-Moderate AD population (baseline MMSE 16-26 inclusive), Mild AD population (baseline MMSE 20-26 inclusive), and the More Mild AD population (baseline MMSE 22-26 inclusive). The data is shown below in FIG. 7, panels A and B.

[5] = Mild (MMSE 20-26), 100 mg BID, 52 weeks
[6] = Mild (MMSE 20-26), 100 mg BID, 65 weeks
[7] = Mild (MMSE 20-26), 100 mg BID, 78 weeks
[8] = Mild (MMSE 20-26), 150 mg BID, 52 weeks
[9] = Mild (MMSE 20-26), 150 mg BID, 65 weeks
[10] = Mild (MMSE 20-26), 150 mg BID, 78 weeks
[11] = Mild-to-Moderate (MMSE 16-26), 100 mg BID, 52 weeks
[12] = Mild-to-Moderate (MMSE 16-26), 100 mg BID, 65 weeks
[13] = Mild-to-Moderate (MMSE 16-26), 100 mg BID, 78 weeks
[14] = Mild-to-Moderate (MMSE 16-26), 150 mg BID, 52 weeks
[15] = Mild-to-Moderate (MMSE 16-26), 150 mg BID, 65 weeks
[16] = Mild-to-Moderate (MMSE 16-26), 150 mg BID, 78 weeks
[17] = Moderate (MMSE 16-19), 100 mg BID, 52 weeks
[18] = Moderate (MMSE 16-19), 100 mg BID, 65 weeks
[19] = Moderate (MMSE 16-19), 100 mg BID, 78 weeks
[20] = Moderate (MMSE 16-19), 150 mg BID, 52 weeks
[21] = Moderate (MMSE 16-19), 150 mg BID, 65 weeks
[22] = Moderate (MMSE 16-19), 150 mg BID, 78 weeks

With NCCCS(=O)(=O)O [Tramiprosate, 3-amino-1-propanesulfonic acid] the “CDR-SB Score Change over Standard of Care (Δ improvement vs control)” value [1, 5] was 0.2 points, the “CDR-SB Score Change over Standard of Care (Δ improvement vs control)” value [1, 6] was 0.3 points and the “CDR-SB Score Change over Standard of Care (Δ improvement vs control)” value [1, 7] was 0.3 points. For the same compound, the “CDR-SB Score Change over Standard of Care (Δ improvement vs control)” value [1, 8] was 0.1 points, the “CDR-SB Score Change over Standard of Care (Δ improvement vs control)” value [1, 9] was −0.1 points and the “CDR-SB Score Change over Standard of Care (Δ improvement vs control)” value [1, 10] was 0 points. The “CDR-SB Score Change over Standard of Care (Δ improvement vs control)” value [1, 11] was 0.5 points, the “CDR-SB Score Change over Standard of Care (Δ improvement vs control)” value [1, 12] was 0.5 points and the “CDR-SB Score Change over Standard of Care (Δ improvement vs control)” value [1, 13] was 0.6 points. For the same compound, the “CDR-SB Score Change over Standard of Care (Δ improvement vs control)” value [1, 14] was 0.4 points, the “CDR-SB Score Change over Standard of Care (Δ improvement vs control)” value [1, 15] was 0.3 points and the “CDR-SB Score Change over Standard of Care (Δ improvement vs control)” value [1, 16] was 0.50 points. The “CDR-SB Score Change over Standard of Care (Δ improvement vs control)” value [1, 17] was 1.00 points, the “CDR-SB Score Change over Standard of Care (Δ improvement vs control)” value [1, 18] was 1.00 points and the “CDR-SB Score Change over Standard of Care (Δ improvement vs control)” value [1, 19] was 1.00 points. The “CDR-SB Score Change over Standard of Care (Δ improvement vs control)” value [1, 20] was 1.00 points, the “CDR-SB Score Change over Standard of Care (Δ improvement vs control)” value [1, 21] was 1.1 points and the “CDR-SB Score Change over Standard of Care (Δ improvement vs control)” value [1, 22] was 1.5 points. For the same compound, the “Effect on CDR-SB compared with the placebo” value ([2]; APOE4+ subgroup, both 100 mg and 150 mg treatment groups) was “statistically significant effect”, the “CDR-SB Score Change over Standard of Care (Δ improvement vs control)” value [2, 5] was 0.14 points and the “CDR-SB Score Change over Standard of Care (Δ improvement vs control)” value [2, 6] was 0.34 points. The “CDR-SB Score Change over Standard of Care (Δ improvement vs control)” value [2, 7] was 0.35 points, the “CDR-SB Score Change over Standard of Care (Δ improvement vs control)” value [2, 8] was 0.16 points and the “CDR-SB Score Change over Standard of Care (Δ improvement vs control)” value [2, 9] was 0.2 points. For the same compound, the “CDR-SB Score Change over Standard of Care (Δ improvement vs control)” value [2, 10] was 0.18 points, the “CDR-SB Score Change over Standard of Care (Δ improvement vs control)” value [2, 11] was 0.26 points and the “CDR-SB Score Change over Standard of Care (Δ improvement vs control)” value [2, 12] was 0.5 points. The “CDR-SB Score Change over Standard of Care (Δ improvement vs control)” value [2, 13] was 0.55 points, the “CDR-SB Score Change over Standard of Care (Δ improvement vs control)” value [2, 14] was 0.44 points and the “CDR-SB Score Change over Standard of Care (Δ improvement vs control)” value [2, 15] was 0.5 points. For the same compound, the “CDR-SB Score Change over Standard of Care (Δ improvement vs control)” value [2, 16] was 0.6 points, the “CDR-SB Score Change over Standard of Care (Δ improvement vs control)” value [2, 17] was 0.56 points and the “CDR-SB Score Change over Standard of Care (Δ improvement vs control)” value [2, 18] was 0.83 points. The “CDR-SB Score Change over Standard of Care (Δ improvement vs control)” value [2, 19] was 0.98 points, the “CDR-SB Score Change over Standard of Care (Δ improvement vs control)” value [2, 20] was 1.00 points and the “CDR-SB Score Change over Standard of Care (Δ improvement vs control)” value [2, 21] was 1.12 points. The “CDR-SB Score Change over Standard of Care (Δ improvement vs control)” value [2, 22] was 1.53 points, the “Most common adverse event” value [3] was “nausea” and the Safety profile [3] was “favorable safety profile”. For the same compound, the “Improvement compared with patients with lower MMSE at baseline” value ([4]; Mild AD (baseline MMSE ≥20) or More Mild AD (baseline MMSE ≥22)) was “higher improvement” and the “Efficacy and cognitive benefit by baseline MMSE” value ([4]; baseline MMSE ≥22 (More Mild), 78 weeks) was “highest efficacy and a sustained cognitive benefit”.
